ChEMBL document CHEMBL5154747, “Discovery of new carbonic anhydrase IX inhibitors as anticancer agents by toning the hydrophobic and hydrophilic rims of the active site to encounter the dual-tail approach” (Eur J Med Chem, 2022)

How the values were obtained:
Assay type in all cases: functional
CCRF-CEM = experiment: Anticancer activity against human CCRF-CEM cells assessed as cell growth inhibition incubated for 48 hrs by SRB assay
HL-60(TB) = experiment: Anticancer activity against human HL-60(TB) cells assessed as cell growth inhibition incubated for 48 hrs by SRB assay
K562 = experiment: Anticancer activity against human K562 cells assessed as cell growth inhibition incubated for 48 hrs by SRB assay
RPMI-8226 = experiment: Anticancer activity against human RPMI-8226 cells assessed as cell growth inhibition incubated for 48 hrs by SRB assay
EKVX = experiment: Anticancer activity against human EKVX cells assessed as cell growth inhibition incubated for 48 hrs by SRB assay
HOP-62 = experiment: Anticancer activity against human HOP-62 cells assessed as cell growth inhibition incubated for 48 hrs by SRB assay
HOP-92 = experiment: Anticancer activity against human HOP-92 cells assessed as cell growth inhibition incubated for 48 hrs by SRB assay
NCI-H226 = experiment: Anticancer activity against human NCI-H226 cells assessed as cell growth inhibition incubated for 48 hrs by SRB assay
NCI-H460 = experiment: Anticancer activity against human NCI-H460 cells assessed as cell growth inhibition incubated for 48 hrs by SRB assay
NCI-H522 = experiment: Anticancer activity against human NCI-H522 cells assessed as cell growth inhibition incubated for 48 hrs by SRB assay
COLO 205 = experiment: Anticancer activity against human COLO 205 cells assessed as cell growth inhibition incubated for 48 hrs by SRB assay
HCC 2998 = experiment: Anticancer activity against human HCC 2998 cells assessed as cell growth inhibition incubated for 48 hrs by SRB assay
HCT-116 = experiment: Anticancer activity against human HCT-116 cells assessed as cell growth inhibition incubated for 48 hrs by SRB assay
KM12 = experiment: Anticancer activity against human KM12 cells assessed as cell growth inhibition incubated for 48 hrs by SRB assay
SF-268 = experiment: Anticancer activity against human SF-268 cells assessed as cell growth inhibition incubated for 48 hrs by SRB assay
SF-295 = experiment: Anticancer activity against human SF-295 cells assessed as cell growth inhibition incubated for 48 hrs by SRB assay; conditions: read-out: LC50 (the source's name)
SF-539 = experiment: Anticancer activity against human SF-539 cells assessed as cell growth inhibition incubated for 48 hrs by SRB assay
SNB-19 = experiment: Anticancer activity against human SNB-19 cells assessed as cell growth inhibition incubated for 48 hrs by SRB assay
SNB-75 = experiment: Anticancer activity against human SNB-75 cells assessed as cell growth inhibition incubated for 48 hrs by SRB assay
U-251 = experiment: Anticancer activity against human U-251 cells assessed as cell growth inhibition incubated for 48 hrs by SRB assay
M14 = experiment: Anticancer activity against human M14 cells assessed as cell growth inhibition incubated for 48 hrs by SRB assay
MDA-MB-435 = experiment: Anticancer activity against human MDA-MB-435 cells assessed as cell growth inhibition incubated for 48 hrs by SRB assay
SK-MEL-28 = experiment: Anticancer activity against human SK-MEL-28 cells assessed as cell growth inhibition incubated for 48 hrs by SRB assay
UACC-257 = experiment: Anticancer activity against human UACC-257 cells assessed as cell growth inhibition incubated for 48 hrs by SRB assay
UACC-62 = experiment: Anticancer activity against human UACC-62 cells assessed as cell growth inhibition incubated for 48 hrs by SRB assay
OVCAR-3 = experiment: Anticancer activity against human OVCAR-3 cells assessed as cell growth inhibition incubated for 48 hrs by SRB assay
OVCAR-5 = experiment: Anticancer activity against human OVCAR-5 cells assessed as cell growth inhibition incubated for 48 hrs by SRB assay
NCI/ADR-RES = experiment: Anticancer activity against human NCI/ADR-RES cells assessed as cell growth inhibition incubated for 48 hrs by SRB assay
SK-OV-3 = experiment: Anticancer activity against human SK-OV-3 cells assessed as cell growth inhibition incubated for 48 hrs by SRB assay
ACHN = experiment: Anticancer activity against human ACHN cells assessed as cell growth inhibition incubated for 48 hrs by SRB assay
CAKI-1 = experiment: Anticancer activity against human CAKI-1 cells assessed as cell growth inhibition incubated for 48 hrs by SRB assay
SN12C = experiment: Anticancer activity against human SN12C cells assessed as cell growth inhibition incubated for 48 hrs by SRB assay
UO-31 = experiment: Anticancer activity against human UO-31 cells assessed as cell growth inhibition incubated for 48 hrs by SRB assay
PC-3 = experiment: Anticancer activity against human PC-3 cells assessed as cell growth inhibition incubated for 48 hrs by SRB assay
MCF7 = experiment: Anticancer activity against human MCF7 cells assessed as cell growth inhibition incubated for 48 hrs by SRB assay
Hs-578T = experiment: Anticancer activity against human Hs-578T cells assessed as cell growth inhibition incubated for 48 hrs by SRB assay
BT-549 = experiment: Anticancer activity against human BT-549 cells assessed as cell growth inhibition incubated for 48 hrs by SRB assay
T47D = experiment: Anticancer activity against human T47D cells assessed as cell growth inhibition incubated for 48 hrs by SRB assay
MDA-MB-468 = experiment: Anticancer activity against human MDA-MB-468 cells assessed as cell growth inhibition incubated for 48 hrs by SRB assay
[1] = read-out: LC50 (the source's name)

Cc1nn(-c2ccccc2)cc1/C=N/Nc1nc(Nc2ccccc2)nc(Nc2ccc(S(N)(=O)=O)cc2)n1
GI50 (CCRF-CEM): 2.09 µM
CC50 (CCRF-CEM; [1]): > 100 µM
GI50 (HL-60(TB)): 2.24 µM
CC50 (HL-60(TB); [1]): > 100 µM
GI50 (K562): 2.63 µM
CC50 (K562; [1]): > 100 µM
GI50 (RPMI-8226): 1.66 µM
LC50 (concentration killing 50% of cells) (RPMI-8226): > 100 µM
GI50 (EKVX): 2 µM
CC50 (EKVX; [1]): 35.1 µM
GI50 (HOP-62): 2.83 µM
CC50 (HOP-62; [1]): > 100 µM
GI50 (HOP-92): 2.44 µM
CC50 (HOP-92; [1]): > 100 µM
GI50 (NCI-H226): 1.85 µM
CC50 (NCI-H226; [1]): > 100 µM
GI50 (NCI-H460): 2.77 µM
CC50 (NCI-H460; [1]): > 100 µM
GI50 (NCI-H522): 2.66 µM
CC50 (NCI-H522; [1]): > 100 µM
GI50 (COLO 205): 2.47 µM
CC50 (COLO 205; [1]): > 100 µM
GI50 (HCC 2998): 1.88 µM
CC50 (HCC 2998; [1]): 7.01 µM
GI50 (HCT-116): 2 µM
LC50 (concentration killing 50% of cells) (HCT-116): > 100 µM
GI50 (KM12): 2.84 µM
CC50 (KM12; [1]): > 100 µM
GI50 (SF-268): 2.93 µM
LC50 (concentration killing 50% of cells) (SF-268): > 100 µM
CC50 (SF-295): > 100 µM
GI50 (SF-539): 1.71 µM
CC50 (SF-539; [1]): 6.25 µM
GI50 (SNB-19): 3.44 µM
CC50 (SNB-19; [1]): > 100 µM
GI50 (SNB-75): 2.69 µM
LC50 (concentration killing 50% of cells) (SNB-75): > 100 µM
GI50 (U-251): 3.65 µM
CC50 (U-251; [1]): > 100 µM
GI50 (M14): 2.06 µM
GI50 (MDA-MB-435): 1.77 µM
LC50 (MDA-MB-435): 6.78 µM
GI50 (SK-MEL-28): 1.8 µM
CC50 (SK-MEL-28; [1]): 6.64 µM
GI50 (UACC-257): 2.5 µM
LC50 (UACC-257): > 100 µM
GI50 (UACC-62): 1.78 µM
LC50 (UACC-62): 7.19 µM
GI50 (OVCAR-3): 3.18 µM
LC50 (concentration killing 50% of cells) (OVCAR-3): > 100 µM
GI50 (OVCAR-5): 2.06 µM
CC50 (OVCAR-5; [1]): > 100 µM
GI50 (NCI/ADR-RES): > 100 µM
CC50 (NCI/ADR-RES; [1]): > 100 µM
GI50 (SK-OV-3): 2.93 µM
LC50 (SK-OV-3): > 100 µM
GI50 (ACHN): 1.9 µM
CC50 (ACHN; [1]): 6.72 µM
GI50 (CAKI-1): 2.01 µM
GI50 (SN12C): 2.94 µM
LC50 (SN12C): > 100 µM
GI50 (UO-31): 1.72 µM
CC50 (UO-31; [1]): 7.27 µM
GI50 (PC-3): 2.22 µM
CC50 (PC-3; [1]): > 100 µM
GI50 (MCF7): 1.55 µM
LC50 (MCF7): 7.59 µM
GI50 (Hs-578T): 2.77 µM
LC50 (concentration killing 50% of cells) (Hs-578T): > 100 µM
GI50 (BT-549): 1.84 µM
CC50 (BT-549; [1]): > 100 µM
GI50 (T47D): 2.14 µM
LC50 (T47D): > 100 µM
GI50 (MDA-MB-468): 1.52 µM
CC50 (MDA-MB-468; [1]): 7.03 µM
